Tests used:
PKMYT1 (MYT1) = PKMYT1 (MYT1) (Homo sapiens (Human), UniProt Q99640); assay: PKMYT1 HTRF Assay; format: binding; conditions: Tracer 178, GST-Tb; compound 10 μM to 0.5 nM
Experimental: Example A: PKMYT1 HTRF Assay
(§1) Compound serial dilution is performed by Echo, and the final concentrations vary from 10 μM to 0.5 nM. This was filled by the addition of 5 μL/well of Enzyme solution to the assay plate containing the compound. The plate was centrifuged at 1000 rpm for 1 minute, and incubate 15 minutes at 25° C. Then 5 μL/well of tracer solution (Tracer 178) was added to initiate the reaction, and incubate for 60 minutes at 25° C. Next 5 μL GST-Tb was added into the assay plate, the plate was centrifuged at 1000 rpm for 1 minute, and incubate for 15 minutes at 25° C. The assay plate was read on Envision.

WEE1 = WEE1 (Homo sapiens (Human), UniProt P30291); assay: WEE1 ADP-Glo Assay; format: biochemical; conditions: compound 10 μM to 0.5 nM
Experimental: Example B: WEE1 ADP-Glo Assay
as §1, with “of substrate” for “of tracer”, “solution” for “solution (Tracer 178)”, “Next 10” for “Next 5”, “μL kinase detection reagent” for “μL GST-Tb”, “for 60” for “for 15”, “on Envision for US LUM as RLU.” for “on Envision.”

Chain of PKMYT1 (MYT1) (Q99640 whole entry): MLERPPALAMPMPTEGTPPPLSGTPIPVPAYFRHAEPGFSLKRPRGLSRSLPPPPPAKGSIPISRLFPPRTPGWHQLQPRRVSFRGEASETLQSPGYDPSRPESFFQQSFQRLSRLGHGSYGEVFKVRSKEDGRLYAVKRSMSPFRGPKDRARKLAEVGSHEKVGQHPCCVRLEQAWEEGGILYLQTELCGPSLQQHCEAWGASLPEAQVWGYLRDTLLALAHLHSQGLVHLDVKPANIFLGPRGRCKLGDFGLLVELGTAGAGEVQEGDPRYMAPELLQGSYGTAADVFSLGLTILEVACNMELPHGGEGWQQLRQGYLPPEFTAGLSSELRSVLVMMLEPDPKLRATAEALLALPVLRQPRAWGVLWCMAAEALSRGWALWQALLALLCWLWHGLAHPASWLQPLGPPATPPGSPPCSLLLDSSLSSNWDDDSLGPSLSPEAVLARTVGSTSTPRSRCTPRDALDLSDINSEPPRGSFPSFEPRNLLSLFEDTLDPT
Chain of WEE1 (P30291 whole entry): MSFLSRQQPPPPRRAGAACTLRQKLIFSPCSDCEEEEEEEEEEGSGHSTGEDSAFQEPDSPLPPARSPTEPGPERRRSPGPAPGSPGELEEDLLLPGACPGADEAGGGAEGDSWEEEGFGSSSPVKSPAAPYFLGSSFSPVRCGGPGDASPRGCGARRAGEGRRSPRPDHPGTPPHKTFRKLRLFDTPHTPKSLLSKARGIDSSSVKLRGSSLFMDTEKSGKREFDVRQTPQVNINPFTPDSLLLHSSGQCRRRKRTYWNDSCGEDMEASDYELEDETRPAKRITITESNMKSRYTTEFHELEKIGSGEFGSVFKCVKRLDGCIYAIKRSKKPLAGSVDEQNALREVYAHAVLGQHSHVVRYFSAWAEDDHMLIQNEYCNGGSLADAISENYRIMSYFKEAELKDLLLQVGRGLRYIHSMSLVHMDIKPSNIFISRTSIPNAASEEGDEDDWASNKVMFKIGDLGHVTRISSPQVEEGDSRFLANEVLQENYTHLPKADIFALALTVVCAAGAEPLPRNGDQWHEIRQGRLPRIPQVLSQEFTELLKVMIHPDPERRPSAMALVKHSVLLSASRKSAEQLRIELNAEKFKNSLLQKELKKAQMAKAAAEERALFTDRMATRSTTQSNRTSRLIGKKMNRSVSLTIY

SMILES: Cc1ccc(O)c(C)c1-n1c(N)c2c3c(c(C)cnc31)CCNC2=O [Example 1, 1-amino-2-(3-hydroxy-2,6-dimethylphenyl)-5-methyl-2,6,7,8-tetrahydro-9H-2,3,8-triazabenzo[cd]azulen-9-one]
- IC50 (PKMYT1 (MYT1)): < 0.01 µM
- IC50 (WEE1): 1.21 µM

SMILES: Cc1ccc(O)c(C)c1-n1c(N)c2c3c(c(C)ncc31)CCNC2=O [Example 2, 1-amino-2-(3-hydroxy-2,6-dimethylphenyl)-5-methyl-2,6,7,8-tetrahydro-9H-2,4,8-triazabenzo[cd]azulen-9-one]
- IC50 (PKMYT1 (MYT1)): 0.01 to 0.05 µM
- IC50 (WEE1): > 10 µM

SMILES: Cc1nc2c3c(c(N)n(-c4c(C)ccc(O)c4C)c3n1)C(=O)NCC2 [Example 3, 1-amino-2-(3-hydroxy-2,6-dimethylphenyl)-4-methyl-2,6,7,8-tetrahydro-9H-2,3,5,8-tetraazabenzo[cd]azulen-9-one]
- IC50 (PKMYT1 (MYT1)): < 0.01 µM
